From article PMC5118774 (Frontiers in Pharmacology, 2016)
“Also recorded” adds a separate entry of the source.

How the values were obtained:
[1] = Plasma protein and brain tissue binding, rapid equilibrium dialysis; type: in vitro ADME, mouse
Description: The rapid equilibrium dialysis assay used to determine free fraction of α5-PAM in mouse plasma and brain tissue was the same as in [Obradovic et al. (2014)].

[2] = Pharmacokinetic study, plasma and brain levels after single i.p. injection; type: in vivo, C57BL/6J mice; details: 30 mg/kg i.p.; for Brain AUC0-3: mean ± SEM
Protocol: Adult (8 weeks old) male and female C57BL/6J (Military Farm, Belgrade, Serbia) were divided into six groups corresponding to pre-determined time intervals following a single 30 mg/kg α5-PAM injection (5, 10, 20, 40, 60, and 180 min). At 30 mg/kg α5-PAM administration has high affinity for the α5-subunit and lower affinity for GABAA-receptors containing other subunits ([Savic et al., 2010]). As the goal of this study was to selectively evaluate positive modulation of α5-containing GABAA receptors to stress-induced behaviors, we chose this dose to conduct preliminary pharmacokinetic analyses. Blood samples were collected in heparinized syringes via cardiac puncture of mice anesthetized with ketamine (100 mg/kg i.p.; 10% Ketamidor, Richter Pharma Ag, Wels, Austria), and centrifuged at 2500 rpm for 10 min to obtain plasma. Thereafter, mice were decapitated and brains were weighed, homogenized in 2 mL of methanol and centrifuged at 6000 rpm for 20 min. To determine the concentration of α5-PAM in plasma and supernatants of brain tissue homogenates, α5-PAM was extracted by solid phase extraction using Oasis HLB cartridges (Waters Corporation, Milford, MA, USA). The procedure of sample preparation and determination of α5-PAM by ultra performance liquid chromatography–tandem mass spectrometry (UPLC–MS/MS) with Thermo Scientific Accela 600 UPLC system connected to a Thermo Scientific TSQ Quantum Access MAX triple quadrupole mass spectrometer (Thermo Fisher Scientific, San Jose, CA, USA) equipped with electrospray ionization (ESI) source, is described in [Obradovic et al. (2014)].

[3] = system: mice exposed to unpredictable chronic mild stress (UCMS); assay: Novelty suppressed feeding test after UCMS; type: in vivo, C57BL/6J mice
Description: (§1) Mice underwent between 6 and 8 weeks of UCMS (see Supplementary Table S1 for example UCMS schedule). Animals were exposed to 2–3 mild stressors each day throughout the light/dark cycle, including wet bedding, brief restraint, forced bath, no bedding, reduced space, and predator odor over a period of several weeks (see details in Supplementary Material) ([Edgar et al., 2011]; [Lin and Sibille, 2015]). Female mice were housed 5 per cage, and male mice were housed 4 per cage in Optimice cages (Animal Care Systems Inc, Centennial, CO, USA). In experiment 3.4, UCMS was augmented with single-cage isolation housing in male mice beginning at the fourth week of UCMS until sacrifice. A timeline of experimental procedures can be found in Figure 2A (including timeline of the sections “ Drug Treatment” and “Behavioral Testing”).
(§2) At the start of the third week of UCMS and continuing for between 28 and 42 days (including time for behavioral tests, see “Behavioral Testing”) until sacrifice, mice received daily i.p injections of vehicle (85% ddH2O, 14% propylene glycol, 1% Tween 80) or 30 mg/kg SH-053-2’F-R-CH3 (α5-PAM; synthesized in the laboratory of Dr. James M. Cook) in a volume of […]. All animals received a single daily injection (chronic α5-PAM treated mice received SH-053-2’F-R-CH3, acute α5-PAM and vehicle treated animals received vehicle injections) between 8:00AM and 9:00AM until the start of behavioral testing. After 3 weeks of treatment, all mice began receiving a second injection 30 min prior to behavioral testing. All animals received a second injection of either vehicle (for chronic α5-PAM treated animals and UCMS-vehicle treated animals) or α5-PAM acutely (α5-PAM acute animals). All injections were performed using ultra-fine insulin syringes (31 gauge, 6 mm; Becton, Dickinson and Company, Franklin Lakes, NJ, USA).
(§3) After 5 weeks of UCMS, including 3 weeks of drug treatment, animals were assessed in a battery of behavioral tests (each test separated by 48 h, UCMS continued throughout behavioral testing for a period of 1–3 weeks). These tests included: Elevated plus maze: under red light, animals were placed on a plus maze with two open and two closed arms (30 cm × 5 cm). Number of entries into all arms as well as the time spent in the open arms was recorded for 10 min. Open field test: The open field test was conducted in a 43 cm ×43 cm arena under bright (800 lux) light. Using AnyMaze software (Stoelting, Wood Dale, IL, USA), the center 50% of the arena was identified and animals were tracked for 10 min. Novelty suppressed feeding test: Mice were food deprived for 24 h the day before testing. Testing occurred in brightly lit (∼1000 lux) open field arenas covered in bedding. A normal food pellet was placed into the brightly lit center and the latency for an animal to approach and bite the pellet was recorded over a 12 min session. Immediately following the session, animals were placed into their home cage and allowed to eat a weighed food pellet to assess hunger drive. Cookie test: The cookie test apparatus contains three identically sized chambers (40 cm × 20 cm × 20 cm) separated by two offset dividers. The outer walls of each chamber were clear and the only difference between each was the color of the divider, with one divider shaded white and the other black. One week prior to experimentation, mice were habituated in their home cage to a piece (2 ± 1 g) of Keebler Fudge Stripe Cookie (Kellogg’s Company, Battle Creek, MI, USA). On the first and second day of testing, a piece of cookie (2 ± 1 g) was placed into the chamber separated by the black divider. Mice were then placed into the opposing chamber separated by the white divider and monitored for 10 min. The latency for each mouse to bite the cookie was recorded. […]

[4] = system: mice exposed to unpredictable chronic mild stress (UCMS); assay: Cookie test after UCMS; type: in vivo, C57BL/6J mice
Description: as §1, §2, §3

[5] = female UCMS mice, acute treatment, vs UCMS-vehicle, second cohort (Figure 3)
[6] = female UCMS mice, chronic treatment, vs UCMS-vehicle, second cohort (Figure 3)
[7] = male UCMS mice, 37.5 mg/kg acute or chronic (Figure 4B), 37.5 mg/kg
[8] = male UCMS mice, acute or chronic 30 mg/kg i.p., first cohort (Figure 2)
[9] = male mice, UCMS plus single housing, chronic treatment (Figure 4A)

C#Cc1ccc2c(c1)C(c1ccccc1F)=N[C@H](C)c1c(C(=O)OCC)ncn1-2 [α5-PAM]
free fraction, brain tissue ([1]; mouse brain tissue): 2.73%
free fraction, plasma ([1]; mouse plasma): 7.44%
Brain AUC0-3, females relative to males [2]: approximately 1.25 X
Brain AUC0-3 ([2]; female mice): 4910.13 ± 1032.02 ng·h/g
Brain AUC0-3 ([2]; male mice): 3944.49 ± 560.30 ng·h/g
NSF latency to bite food pellet ([3]; female UCMS mice, acute 30 mg/kg i.p. 30 min before test, vs UCMS-vehicle, first cohort (Figure 2)): reduced the latency to bite; also recorded: reducing latency to bite
NSF latency to bite food pellet [3, 5]: reduces; also recorded: reduced the latency to bite
NSF latency to bite food pellet ([3]; female UCMS mice, chronic 30 mg/kg i.p., vs UCMS-vehicle, first cohort (Figure 2)): reduced the latency to bite; also recorded: reducing latency to bite
NSF latency to bite food pellet [3, 6]: reduces; also recorded: reduced the latency to bite
NSF, stress-induced behavior [3, 7]: No change; also recorded: failed to reduce
NSF latency to bite food pellet [3, 8]: no effect
NSF, UCMS-induced behavioral phenotype [3, 9]: did not alter; also recorded: No significant effect
cookie test latency to bite the cookie ([4]; female UCMS mice, acute 30 mg/kg i.p., first cohort (Figure 2)): a trend in the same direction
cookie test latency to bite the cookie [4, 5]: reduces the latency to bite; also recorded: significantly reduced the latency to bite
cookie test latency to bite the cookie ([4]; female UCMS mice, chronic 30 mg/kg i.p., first cohort (Figure 2)): reduced the latency to bite; also recorded: significant decrease
cookie test latency to bite the cookie [4, 6]: reduces the latency to bite; also recorded: significantly reduced the latency to bite
cookie test, stress-induced behavior [4, 7]: No change; also recorded: failed to reduce
cookie test latency to bite the cookie [4, 8]: No significant effect; also recorded: No significant difference
cookie test, UCMS-induced behavioral phenotype [4, 9]: did not alter; also recorded: No significant effect
